Assay results taken from US20240309038A1, “NOVEL GALACTOSIDE INHIBITOR OF GALECTINS” (GALECTO BIOTECH AB, priority 2020, published 2024).
One block for each molecule: values may come before it.

Legend:
Human hepatic Clint = format: in vitro ADME
Gal-3 = Gal-3 (Homo sapiens, UniProt P17931); test: Fluorescence anisotropy assay, inhibition of galectin / fluorescein tagged saccharide probe interaction; format: binding
Protocol: The affinity of Example 1-59 for galectins were determined by a fluorescence anisotropy assay where the compound was used as an inhibitor of the interaction between galectin and a fluorescein tagged saccharide probe as described Sörme, P., Kahl-Knutsson, B., Huflejt, M., Nilsson, U. J., and Leffler H. (2004) Fluorescence polarization as an analytical tool to evaluate galectin-ligand interactions. Anal. Biochem. 334: 36-47, (Sarme et al., 2004)

[1] = CACO-2 A > B permeability; format: in vitro ADME; details: human
Source text: The compounds of the present invention are novel β-D-galactopyranose compounds that unexpectedly have shown high affinity for galectin-3 and are considered novel potent drug candidates. In addition, it is seen that with these compounds the advantage is that the pyrazole moiety A^1 results in an improved uptake over CACO-2 cells predicting high oral bioavailability after oral administration and this is supported by disclosed ADME data herein. Further compared to compounds where A^1 is a triazole moiety this improvement is significant.

Chain of Gal-3 (P17931 whole entry, species assumed): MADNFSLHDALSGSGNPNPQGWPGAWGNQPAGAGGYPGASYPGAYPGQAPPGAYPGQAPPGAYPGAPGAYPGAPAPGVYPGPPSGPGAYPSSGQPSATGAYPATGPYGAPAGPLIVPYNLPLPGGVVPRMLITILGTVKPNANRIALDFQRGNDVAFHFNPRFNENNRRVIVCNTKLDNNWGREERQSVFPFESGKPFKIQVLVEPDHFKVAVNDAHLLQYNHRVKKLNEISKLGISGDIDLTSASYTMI

- CLint scaled (Human hepatic Clint): 0.6 mL/min/kg
- Kd (Gal-3): 12 nM
- Papp A→B [1]: 20 ×10⁻⁶ cm/s
Compound: Cc1nc([C@@H]2OC(CO)[C@H](O)C(n3cc(-c4cc(F)c(Cl)c(F)c4)cn3)C2O)n(-c2ccc3nc(C)sc3c2)n1 (stereo in doubt) [Example 9, 6-{5-{3-[4-(4-Chloro-3,5-difluorophenyl)-1H-1,2-pyrazol-1-yl]-3-deoxy-β-D-galactopyranosyl}-3-methyl-1H-1,2,4-triazol-1-yl}-2-methylbenzothiazole]

- CLint scaled (Human hepatic Clint): 0.3 mL/min/kg
- Kd (Gal-3): 22 nM
- Papp A→B [1]: 17 ×10⁻⁶ cm/s
Compound: Cc1nc([C@@H]2OC(CO)[C@H](O)C(n3cc(-c4cc(F)c(F)c(F)c4)cn3)C2O)n(-c2ccc3nc(C)sc3c2)n1 (stereo in doubt) [Example 8, 6-{5-{3-Deoxy-3-[4-(3,4,5-trifluorophenyl)-1H-1,2-pyrazol-1-yl]-β-D-galactopyranosyl}-3-methyl-1H-1,2,4-triazol-1-yl}-2-methylbenzothiazole]

Continued, molecule first:

Compound: Cc1nc([C@@H]2OC(CO)[C@H](O)C(n3cc(-c4cc(F)c(F)c(F)c4)cn3)C2O)n(-c2cc(Cl)cnc2C2CC2)n1 (stereo in doubt) [Example 13, 5-Chloro-3-{5-{3-deoxy-3-[4-(3,4,5-trifluorophenyl)-1H-1,2-pyrazol-1-yl]-β-D-galactopyranosyl}-3-methyl-1H-1,2,4-triazol-1-yl}-2-cyclopropylpyridine]
- CLint scaled (Human hepatic Clint): 0.2 mL/min/kg
- Kd (Gal-3): 15 nM
- Papp A→B [1]: 10 ×10⁻⁶ cm/s

Compound: Cc1nc([C@@H]2OC(CO)[C@H](O)C(n3cc(-c4cc(F)c(Cl)c(F)c4)cn3)C2O)n(-c2cc(Cl)ccc2C(F)(F)F)n1 (stereo in doubt) [Example 5, 1-{5-{3-[4-(4-Chloro-3,5-difluorophenyl)-1H-1,2-pyrazol-1-yl]-3-deoxy-β-D-galactopyranosyl}-3-methyl-1H-1,2,4-triazol-1-yl}-5-chloro-2-(trifluoromethyl)benzene]
- CLint scaled (Human hepatic Clint): 0.4 mL/min/kg
- Kd (Gal-3): 6 nM
- Papp A→B [1]: 18 ×10⁻⁶ cm/s

Compound: Cc1nc([C@@H]2OC(CO)[C@H](O)C(n3cc(-c4cc(F)c(Cl)c(F)c4)cn3)C2O)n(-c2cc(Cl)cnc2C2CC2)n1 (stereo in doubt) [Example 1, 3-{5-{3-[4-(4-Chloro-3,5-difluorophenyl)-1H-1,2-pyrazol-1-yl]-3-deoxy-β-D-galactopyranosyl}-3-methyl-1H-1,2,4-triazol-1-yl}-5-chloro-2-cyclopropylpyridine]
- CLint scaled (Human hepatic Clint): 1.3 mL/min/kg
- Kd (Gal-3): 32 nM
- Papp A→B [1]: 18 ×10⁻⁶ cm/s
